Experimental findings from patent publication US10751358B2, “Multitargeted nucleoside derivatives” (priority 2017, dated 2020) are described below.

Experiment [1] concerns National Cancer Institute's panel of human cell lines. In words: National Cancer Institute's panel of human cell lines in culture. It is filed as cell-based. As to conditions: 10 micromolar, cell lines of Table 2, read-out: growth inhibition of the sampled human cancer cell lines. From the text: (§1) A sample of the variety of human cancer cell lines, whose growth was inhibited more than 50% by 10 micromolar concentration of the prototype drug 6a, is shown in Table 2.

Experiment [2] has as its system KG-1 human acute myeloid leukemia cells. The experiment is described as follows: Cell viability assay of Promega, KG-1 cells. It is filed as cell-based. From the text: Using the cell viability assay of Promega, the following IC50-values were obtained against KG-1 human acute myeloid leukemia cells (Table 3). The nucleoside carbamate capecitabine (Xeloda®) is included for comparison).

A further experiment has as its system OVCAR-8. In words: NCI panel growth inhibition, OVCAR-8. As to conditions: Homo sapiens, 10 micromolar. It is filed as cell-based.
Source text: as §1
(§2) The description of the human cancer cell lines used is as follows: ACHN, human renal adenocarcinoma; HL-60(TB), human acute myeloid leukemia; HCT-116, human colon carcinoma; HOP-62, human adenocarcinoma (non-small cell lung cancer); M14, human metastatic malignant melanoma; MCF7, human mammary adenocarcinoma; OVCAR-8, human ovarian carcinoma.

The next experiment has as its system ACHN. In words: NCI panel growth inhibition, ACHN. It is filed as cell-based. As to conditions: Homo sapiens, 10 micromolar.
Source text: as §1, §2

A further experiment concerns M14. In words: NCI panel growth inhibition, M14. It is filed as cell-based. As to conditions: Homo sapiens, 10 micromolar.
Source text: as §1, §2

Another experiment deals with MCF-7. In words: NCI panel growth inhibition, MCF-7. As to conditions: Homo sapiens, MCF7, 10 micromolar. It is filed as cell-based.
Source text: as §1, §2

The subject of experiment [3] is human colon cancer HCT-116 cells. In words: HCT-116 xenograft test for in vivo oral anticancer activity. Further details: species or system mice. As to conditions: athymic nude mice, daily oral dosing, 25 mg/kg. From the text:
This example provides a description of HCT-116 xenograft test for in vivo oral anticancer activity of 6a.
Forty athymic nude mice (NCr nude, female, 5-6 weeks old, 20-25 g, Taconic) were inoculated with 6×10^6 exponentially growing human colon cancer HCT-116 cells, 1:1 ratio with Matrigel in 100 microliter into the right flank. Over the following 10 days, tumors reached a volume of 70 to 130 mm^3. Tumor volume were caliper-measured and calculated as length×width×width/2. Thirty mice were randomly allocated into three groups: (1) vehicle control group, (2) 6a test group, and (3) capecitabine (Cayman Chemical Co.) positive control group, with 10 mice into each group. Dosing solutions of each were prepared and kept refrigerated during the course of the test. Each mouse was dosed daily by oral administration.
After starting the dosing, body weights and tumor size measurements were recorded twice weekly to the end of the test.

For a further experiment, the system named is HL60. The experiment is described as follows: NCI panel growth inhibition, HL60. As to conditions: Homo sapiens, HL-60, 10 micromolar. It is filed as cell-based.
Source text: as §1, §2

The subject of the next experiment is NCI-H522. The experiment is described as follows: NCI panel growth inhibition, NCI-H522. It is filed as cell-based. As to conditions: Homo sapiens, 10 micromolar.
Source text: as §1, §2

In another experiment the test system is HCT-116. The experiment is described as follows: NCI panel growth inhibition, HCT-116. It is filed as cell-based. To be noted: Homo sapiens, 10 micromolar.
Source text: as §1, §2

For the molecule `CCCCCOC(=O)Nc1nc(=O)n([C@@H]2O[C@H](CO)[C@@H](O)C2(F)F)cc1F` [Compound 6a, N^4-Pentyloxycarbonyl-2′-deoxy-2′,2′,5-trifluorocytidine], the inhibition (usually the drop in the measured response relative to a control, in per cent) at 10 µM in experiment [1] is more than 50%; in the experiment with OVCAR-8, 71.6%; in the experiment with ACHN, 86.4%; with M14, 85.9%; with MCF-7 it was 51.9%; with HL60 it was 75.8%. In addition, the inhibition at 10 µM was found to be 61.1% with NCI-H522 and 63.5% with HCT-116. Also, in [2] (Homo sapiens, cell viability), it took 129 ± 10.7 nM to reach half-maximal inhibition (IC50). The “Ratio (IC50-value of capecitabine/IC50-value of test compound)” value in experiment [2] (fold potency versus capecitabine) is reported as 69. For the same molecule, the “in vivo oral anticancer activity (growth of human colon cancer in mice)” value in experiment [3] was “orally active in vivo”.
